Laboratory results from patent US20080214572A1, “Selected Tetracyclic Tetrahydrofuran Derivatives Containing a Cyclic Amine Side Chain” (priority 2005, published 2008).
Like-named read-outs stand apart in the source and are kept apart here.

Columns and labels:
[1] = target: T1, human Dopamine D2L receptor (Homo sapiens, UniProt P14416); experiment: In vitro binding affinity for human D2L receptor ([3H]Spiperone)
T1 construct: expressed in transfected cells; host or cells: CHO cells (membranes)
Description: Frozen membranes of human Dopamine D2L receptor-transfected CHO cells were thawed, briefly homogenized using an Ultra-Turrax T25 homogenizer and diluted in Tris-HCl assay buffer containing NaCl, CaCl2, MgCl2, KCl ([…] respectively, adjusted to pH 7.7 with HCl) to an appropriate protein concentration optimized for specific and non-specific binding. Radioligand [^3H]Spiperone (NEN, specific activity ˜70 Ci/mmol) was diluted in assay buffer at a concentration of 2 nmol/L. Prepared radioligand (50 μl), along with 50 μl of either the 10% DMSO control, Butaclamol (10^−6 mol/l final concentration), or compound of interest, was then incubated (30 min, 37° C.) with 400 μl of the prepared membrane solution. Membrane-bound activity was filtered through a Packard Filtermate harvester onto GF/B Unifilter plates and washed with ice-cold Tris-HCl buffer (50 mM; pH 7.7; 6×0.5 ml). Filters were allowed to dry before adding scintillation fluid and counting in a Topcount scintillation counter. Percentage specific bound and competition binding curves were calculated using S-Plus software (Insightful).
(§1) The results are given in Table 3 below in terms of pIC50 values for the respective compounds.
The values in the Table are pIC50 values and were determined in accordance with the procedure given above for determining D2 affinity.

[2] = target: T2, human cloned 5-HT2C receptor, expressed in CHO cells (Homo sapiens, UniProt P28335); experiment: In vitro radioligand binding affinity for 5-HT2C receptor ([3H]mesulergine)
T2 construct: expressed in transfected cells; host or cells: CHO cells
T2 sequence (P28335 33-458): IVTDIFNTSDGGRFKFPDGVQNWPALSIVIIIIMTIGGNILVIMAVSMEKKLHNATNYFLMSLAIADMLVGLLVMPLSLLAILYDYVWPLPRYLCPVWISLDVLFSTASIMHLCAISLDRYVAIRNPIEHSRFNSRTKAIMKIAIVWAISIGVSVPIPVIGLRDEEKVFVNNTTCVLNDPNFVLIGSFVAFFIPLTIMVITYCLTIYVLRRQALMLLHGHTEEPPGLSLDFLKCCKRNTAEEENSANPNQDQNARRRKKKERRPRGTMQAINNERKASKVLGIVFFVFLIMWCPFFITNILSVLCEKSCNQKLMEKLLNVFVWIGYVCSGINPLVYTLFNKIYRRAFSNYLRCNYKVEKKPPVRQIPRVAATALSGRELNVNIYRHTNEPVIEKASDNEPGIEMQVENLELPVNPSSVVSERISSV
Description: (§2) The interaction of the compounds of Formula (I) with 5-HT2A and 5-HT2C receptors was assessed in in vitro radioligand binding experiments. In general, a low concentration of a radioligand with a high binding affinity for the receptor is incubated with a sample of a tissue preparation enriched in a particular receptor (1 to 5 mg tissue) in a buffered medium (0.2 to 5 ml). During the incubation, the radioligands bind to the receptor. When equilibrium of binding is reached, the receptor bound radioactivity is separated from the non-bound radioactivity, and the receptor bound activity is counted. The interaction of the test compounds with the receptors is assessed in competition binding experiments. Various concentrations of the test compound are added to the incubation mixture containing the tissue preparation and the radioligand. Binding of the radioligand will be inhibited by the test compound in proportion to its binding affinity and its concentration. The affinities of the compounds for the 5-HT2 receptors were measured by means of radioligand binding studies conducted with: (a) human cloned 5-HT2A receptor, expressed in L929 cells using [^125I]R91150 as radioligand and (b) human cloned 5-HT2C receptor, expressed in CHO cells using [^3H]mesulergine as radioligand.
as §1

[3] = target: T3, human cloned 5-HT2A receptor, expressed in L929 cells (Homo sapiens, UniProt P28223); experiment: In vitro radioligand binding affinity for 5-HT2A receptor ([125I]R91150)
T3 construct: expressed in transfected cells; host or cells: L929 cells
T3 sequence (P28223 whole entry): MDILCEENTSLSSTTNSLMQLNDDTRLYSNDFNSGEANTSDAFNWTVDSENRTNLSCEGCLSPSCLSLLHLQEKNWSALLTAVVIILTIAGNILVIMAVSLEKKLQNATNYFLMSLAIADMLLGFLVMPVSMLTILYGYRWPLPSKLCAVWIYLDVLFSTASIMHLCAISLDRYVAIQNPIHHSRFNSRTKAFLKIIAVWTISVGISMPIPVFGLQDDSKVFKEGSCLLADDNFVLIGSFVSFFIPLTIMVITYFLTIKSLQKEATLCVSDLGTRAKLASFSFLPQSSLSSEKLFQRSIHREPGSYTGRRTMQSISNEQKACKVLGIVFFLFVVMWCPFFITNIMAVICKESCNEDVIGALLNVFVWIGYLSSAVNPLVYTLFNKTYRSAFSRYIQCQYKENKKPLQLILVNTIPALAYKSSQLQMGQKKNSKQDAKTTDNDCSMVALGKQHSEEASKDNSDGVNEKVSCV
Description: as §2, §1

[4] = Table 4, comparative data with prior art analogue
[5] = human D2L-transfected CHO cell membranes, [3H]Spiperone, read-out: D2L pIC50 (converted)
[6] = human cloned receptor in CHO cells, [3H]mesulergine, read-out: 5-HT2C pIC50 (converted)
[7] = human cloned receptor in L929 cells, [125I]R91150, read-out: 5-HT2A pIC50 (converted)

T1 sequence (P14416 whole entry): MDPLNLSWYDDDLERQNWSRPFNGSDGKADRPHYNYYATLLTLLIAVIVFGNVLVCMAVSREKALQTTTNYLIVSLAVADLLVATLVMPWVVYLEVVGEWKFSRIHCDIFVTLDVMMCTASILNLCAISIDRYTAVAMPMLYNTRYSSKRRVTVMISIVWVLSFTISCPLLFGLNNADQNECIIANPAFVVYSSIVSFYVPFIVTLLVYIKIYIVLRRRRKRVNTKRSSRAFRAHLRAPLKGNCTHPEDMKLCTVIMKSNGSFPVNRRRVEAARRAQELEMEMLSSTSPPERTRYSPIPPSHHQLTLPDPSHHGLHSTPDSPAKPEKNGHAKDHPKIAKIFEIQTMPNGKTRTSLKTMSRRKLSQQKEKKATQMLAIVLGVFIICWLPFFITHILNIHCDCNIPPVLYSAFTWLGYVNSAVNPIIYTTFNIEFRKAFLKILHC

h-D2L pIC50 [1, 4]	IC50 [1, 5]	IC50 [2, 6]	IC50 [3, 7]	IC50 ([1]; Table 4, comparative data with prior art analogue, read-out: h-D2L pIC50 (converted))	SMILES	IC50 [1]	IC50 [2]	IC50 [3]
8.34	4.57 nM	10.7 nM	4.79 nM	–	OC(Cc1ccccc1)CN1CCN(CC2CC3c4ccccc4Cc4ccc(F)cc4C3O2)CC1 (stereo not drawn) [Compound 28]	–	–	–
–	–	–	–	–	Fc1ccc2c(c1)[C@H]1O[C@@H](CN3CCN(Cc4ccc(C(F)(F)F)cc4)CC3)C[C@@H]1c1ccccc1C2 [Compound 48]	85.1 nM	302 nM	234 nM
–	–	–	–	–	Cc1ccccc1CN1CCN(C[C@H]2C[C@@H]3c4ccccc4Cc4ccc(F)cc4[C@H]3O2)CC1 [Compound 43]	44.7 nM	105 nM	40.7 nM
–	12.3 nM	52.5 nM	26.9 nM	–	CC(C)CN1CCN(C[C@H]2C[C@@H]3c4ccccc4Cc4ccc(F)cc4[C@H]3O2)CC1 [Compound 40]	–	–	–
–	14.1 nM	13.8 nM	4.68 nM	–	COC(=O)N1CCN(C[C@H]2C[C@@H]3c4ccccc4Cc4ccc(F)cc4[C@H]3O2)CC1 [Compound 31]	–	–	–
8.22	6.03 nM	23.4 nM	10 nM	–	CCCCC(O)CN1CCN(CC2CC3c4ccccc4Cc4ccc(F)cc4C3O2)CC1 (stereo not drawn) [Compound 29]	–	–	–
–	1.35 nM	1 nM	3.89 nM	–	CC1CCN(C[C@H]2C[C@@H]3c4ccccc4Cc4ccc(F)cc4[C@H]3O2)CC1 [Compound 12]	–	–	–
–	33.1 nM	9.55 nM	4.27 nM	–	CCOC(=O)N1CCN(C[C@H]2C[C@@H]3c4ccccc4Cc4ccc(F)cc4[C@H]3O2)CC1 [Compound 20]	–	–	–
–	95.5 nM	295 nM	97.7 nM	–	Fc1ccc2c(c1)[C@H]1O[C@@H](CN3CCN(CC(c4ccccc4)c4ccccc4)CC3)C[C@@H]1c1ccccc1C2 [Compound 41]	–	–	–
–	2.51 nM	5.01 nM	0.851 nM	–	CCOCCN1CCN(C[C@H]2C[C@@H]3c4ccccc4Cc4ccc(F)cc4[C@H]3O2)CC1 [Compound 34]	–	–	–
–	–	–	–	–	Fc1ccc(CN2CCN(C[C@H]3C[C@@H]4c5ccccc5Cc5ccc(F)cc5[C@H]4O3)CC2)cc1 [Compound 47]	9.12 nM	129 nM	30.9 nM
–	–	–	–	110 nM	OCCN1CCN(CC2CC3c4ccccc4Cc4ccc(F)cc4C3O2)CC1 (stereo not drawn) [Prior art compound 21from WO 99/19317, reference compound]	–	–	–
–	34.7 nM	39.8 nM	3.8 nM	–	CC(C)C(=O)N1CCN(C[C@H]2C[C@@H]3c4ccccc4Cc4ccc(F)cc4[C@H]3O2)CC1 [Compound 22]	–	–	–
–	3.09 nM	7.41 nM	1.51 nM	–	COCCN1CCN(C[C@H]2C[C@@H]3c4ccccc4Cc4ccc(F)cc4[C@H]3O2)CC1 [Compound 35]	–	–	–
–	16.2 nM	3.09 nM	9.77 nM	–	Fc1ccc2c(c1)[C@H]1O[C@@H](CN3CCCCCC3)C[C@@H]1c1ccccc1C2 [Compound 10]	–	–	–
–	24 nM	5.25 nM	4.68 nM	–	Fc1ccc2c(c1)C1OC(CN3CCCC3)CC1c1ccccc1C2 (stereo not drawn) [Compound 4]	–	–	–
–	7.41 nM	19.1 nM	14.5 nM	–	CC(=O)OCCN1CCN(C[C@H]2C[C@@H]3c4ccccc4Cc4ccc(F)cc4[C@H]3O2)CC1 [Compound 5]	–	–	–
–	–	–	–	–	Fc1ccc2c(c1)[C@H]1O[C@@H](CN3CCN(Cc4ccc(Cl)cc4)CC3)C[C@@H]1c1ccccc1C2 [Compound 42]	28.2 nM	77.6 nM	49 nM
–	4.07 nM	20.4 nM	9.55 nM	–	OC(CN1CCN(C[C@H]2C[C@@H]3c4ccccc4Cc4ccc(F)cc4[C@H]3O2)CC1)c1ccccc1 (stereo partly drawn) [Compound 27]	–	–	–
–	–	–	–	–	Fc1ccc2c(c1)[C@H]1O[C@@H](CN3CCN(Cc4ccccc4)CC3)C[C@@H]1c1ccccc1C2 [Compound 45]	7.94 nM	45.7 nM	18.6 nM
–	3.72 nM	5.5 nM	0.955 nM	–	CC(C)(C)OCCN1CCN(C[C@H]2C[C@@H]3c4ccccc4Cc4ccc(F)cc4[C@H]3O2)CC1 [Compound 36]	–	–	–
–	17 nM	38 nM	11.7 nM	–	CCCCOC(=O)N1CCN(C[C@H]2C[C@@H]3c4ccccc4Cc4ccc(F)cc4[C@H]3O2)CC1 [Compound 33]	–	–	–
–	40.7 nM	4.37 nM	8.51 nM	–	CC1CCCN1C[C@H]1C[C@@H]2c3ccccc3Cc3ccc(F)cc3[C@H]2O1 (mixture of isomers) [Compound 16]	–	–	–
–	2 nM	6.92 nM	0.692 nM	–	OCCN1CCN(C[C@H]2C[C@@H]3c4ccccc4Sc4ccc(F)cc4[C@H]3O2)CC1 [Compound 39]	–	–	–
–	22.9 nM	32.4 nM	5.13 nM	–	CC(C)OC(=O)N1CCN(C[C@H]2C[C@@H]3c4ccccc4Cc4ccc(F)cc4[C@H]3O2)CC1 [Compound 32]	–	–	–
–	1.12 nM	8.51 nM	5.13 nM	–	OC(CCN1CCN(C[C@H]2C[C@@H]3c4ccccc4Cc4ccc(F)cc4[C@H]3O2)CC1)c1ccc(F)cc1 (stereo partly drawn) [Compound 46]	–	–	–
–	5.89 nM	1 nM	1.91 nM	–	Fc1ccc2c(c1)C1OC(CN3CCCCC3)CC1c1ccccc1C2 (stereo not drawn) [Compound 17]	–	–	–
